Experimental data reported in patent US10251874B2, “Crystalline forms of a JAK inhibitor compound” (THERAVANCE BIOPHARMA R&D IP, LLC, priority 2017, dated 2019).

Key:
JAK2 = molecular target: T1, JAK2 (Homo sapiens, UniProt O60674); assay: Assay 1: LanthaScreen biochemical JAK kinase assay, JAK2; conditions: converted from pIC50 by Cheng-Prusoff; ATP at Km 3 μM; read-out: JAK 2 pKi (converted)
T1 construct: GST; purchased Life Technologies
Description: (§1) A panel of four LanthaScreen JAK biochemical assays (JAK1, 2, 3 and Tyk2) were carried in a common kinase reaction buffer (50 mM HEPES, pH 7.5, 0.01% Brij-35, 10 mM MgCl2, and 1 mM EGTA). Recombinant GST-tagged JAK enzymes and a GFP-tagged STAT1 peptide substrate were obtained from Life Technologies.
(§2) The serially diluted compound was pre-incubated with each of the four JAK enzymes and the substrate in white 384-well microplates (Corning) at ambient temperature for lh. ATP was subsequently added to initiate the kinase reactions in 10 μL total volume, with 1% DMSO. […] The plates were allowed to incubate at ambient temperature for lh before being read on the EnVision reader (Perkin Elmer). Emission ratio signals (520 nm/495 nm) were recorded and utilized to calculate the percent inhibition values based on DMSO and background controls.
(§3) For dose-response analysis, percent inhibition data were plotted vs. compound concentrations, and IC50 values were determined from a 4-parameter robust fit model with the Prism software (GraphPad Software). Results were expressed as pIC50 (negative logarithm of IC50) and subsequently converted to pK1 (negative logarithm of dissociation constant, Ki) using the Cheng-Prusoff equation.

JAK3 = molecular target: T2, JAK3 (Homo sapiens, UniProt P52333); assay: Assay 1: LanthaScreen biochemical JAK kinase assay, JAK3; conditions: converted from pIC50 by Cheng-Prusoff; ATP at Km 1.6 μM; read-out: JAK 3 pKi (converted)
T2 construct: GST; purchased Life Technologies
T2 sequence (P52333 1-1124): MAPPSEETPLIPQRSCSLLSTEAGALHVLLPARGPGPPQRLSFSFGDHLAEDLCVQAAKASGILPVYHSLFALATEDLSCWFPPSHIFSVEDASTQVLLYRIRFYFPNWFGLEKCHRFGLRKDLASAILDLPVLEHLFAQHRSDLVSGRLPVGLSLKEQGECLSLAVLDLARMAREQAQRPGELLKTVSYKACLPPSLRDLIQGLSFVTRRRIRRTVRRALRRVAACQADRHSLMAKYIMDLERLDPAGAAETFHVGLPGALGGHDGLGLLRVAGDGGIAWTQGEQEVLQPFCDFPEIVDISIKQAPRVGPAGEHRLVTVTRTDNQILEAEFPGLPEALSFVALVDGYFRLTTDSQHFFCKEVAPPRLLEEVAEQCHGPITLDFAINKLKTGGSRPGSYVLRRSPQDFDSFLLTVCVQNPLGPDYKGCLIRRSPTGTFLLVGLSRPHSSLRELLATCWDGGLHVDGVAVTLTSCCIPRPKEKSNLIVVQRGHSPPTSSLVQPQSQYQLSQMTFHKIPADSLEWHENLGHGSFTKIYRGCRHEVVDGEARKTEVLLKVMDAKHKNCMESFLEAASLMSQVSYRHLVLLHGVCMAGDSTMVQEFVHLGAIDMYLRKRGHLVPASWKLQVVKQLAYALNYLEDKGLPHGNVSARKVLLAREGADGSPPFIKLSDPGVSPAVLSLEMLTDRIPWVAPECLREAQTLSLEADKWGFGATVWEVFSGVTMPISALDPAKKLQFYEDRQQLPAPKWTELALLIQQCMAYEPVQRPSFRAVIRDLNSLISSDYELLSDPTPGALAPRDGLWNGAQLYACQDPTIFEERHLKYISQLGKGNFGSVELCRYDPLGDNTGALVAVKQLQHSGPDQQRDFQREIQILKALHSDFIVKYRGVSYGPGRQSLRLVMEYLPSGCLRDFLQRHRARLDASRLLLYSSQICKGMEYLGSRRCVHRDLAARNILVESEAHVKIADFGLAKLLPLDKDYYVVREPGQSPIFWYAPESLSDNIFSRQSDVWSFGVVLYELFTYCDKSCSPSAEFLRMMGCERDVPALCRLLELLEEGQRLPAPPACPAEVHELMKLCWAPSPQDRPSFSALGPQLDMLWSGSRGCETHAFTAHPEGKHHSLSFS
Description: as §1
ATP was subsequently added to initiate the kinase reactions in 10 μL total volume, with 1% DMSO. […] Kinase reactions were allowed to proceed for 1 hour at ambient temperature before a 10 μL preparation of EDTA (10 mM final concentration) and Tb-anti-pSTAT1 (pTyr701) antibody (Life Technologies, 2 nM final concentration) in TR-FRET dilution buffer (Life Technologies) was added. […] Emission ratio signals (520 nm/495 nm) were recorded and utilized to calculate the percent inhibition values based on DMSO and background controls.
For dose-response analysis, percent inhibition data were plotted vs. compound concentrations, and IC50 values were determined from a 4-parameter robust fit model with the Prism software (GraphPad Software).

JAK1 = molecular target: T3, JAK1 (Homo sapiens, UniProt P23458); assay: Assay 1: LanthaScreen biochemical JAK kinase assay, JAK1; conditions: converted from pIC50 by Cheng-Prusoff; ATP at Km 25 μM; read-out: JAK 1 pKi (converted)
T3 construct: GST; purchased Life Technologies
T3 sequence (P23458 whole entry): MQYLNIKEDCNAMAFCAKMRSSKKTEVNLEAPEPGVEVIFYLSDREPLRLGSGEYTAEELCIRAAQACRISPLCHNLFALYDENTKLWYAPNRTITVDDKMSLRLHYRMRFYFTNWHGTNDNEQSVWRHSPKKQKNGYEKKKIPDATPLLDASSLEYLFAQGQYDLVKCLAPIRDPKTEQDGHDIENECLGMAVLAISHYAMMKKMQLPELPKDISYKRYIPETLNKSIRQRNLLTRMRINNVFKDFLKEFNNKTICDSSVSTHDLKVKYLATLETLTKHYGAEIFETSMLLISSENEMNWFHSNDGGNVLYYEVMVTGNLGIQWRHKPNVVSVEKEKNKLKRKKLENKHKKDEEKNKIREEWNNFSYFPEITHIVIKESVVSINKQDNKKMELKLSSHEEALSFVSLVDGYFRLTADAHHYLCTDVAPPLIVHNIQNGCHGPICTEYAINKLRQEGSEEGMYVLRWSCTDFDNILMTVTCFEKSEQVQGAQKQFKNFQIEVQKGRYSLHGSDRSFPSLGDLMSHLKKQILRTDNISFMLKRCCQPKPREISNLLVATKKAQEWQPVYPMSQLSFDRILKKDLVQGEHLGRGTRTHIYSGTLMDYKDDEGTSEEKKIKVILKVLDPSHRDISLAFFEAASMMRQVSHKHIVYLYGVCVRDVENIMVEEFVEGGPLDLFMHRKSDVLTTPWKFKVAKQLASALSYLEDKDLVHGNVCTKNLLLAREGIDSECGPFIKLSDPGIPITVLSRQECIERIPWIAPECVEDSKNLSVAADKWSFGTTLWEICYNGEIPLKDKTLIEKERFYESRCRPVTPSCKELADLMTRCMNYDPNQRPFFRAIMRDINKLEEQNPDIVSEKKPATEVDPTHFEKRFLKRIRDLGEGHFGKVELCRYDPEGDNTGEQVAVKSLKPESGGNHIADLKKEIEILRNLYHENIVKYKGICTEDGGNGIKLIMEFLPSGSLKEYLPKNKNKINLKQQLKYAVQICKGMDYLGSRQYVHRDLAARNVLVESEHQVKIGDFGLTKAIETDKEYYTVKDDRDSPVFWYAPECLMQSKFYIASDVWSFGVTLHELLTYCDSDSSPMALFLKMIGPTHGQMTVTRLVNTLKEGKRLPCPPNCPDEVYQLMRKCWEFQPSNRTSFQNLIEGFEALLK
Description: as §1, §2, §3

[1] = system: IL-2/anti-CD3 stimulated IFNγ in human PBMCs; assay: Assay 3: Inhibition of IL-2/anti-CD3 stimulated IFNγ in human PBMCs; type: cell-based; conditions: PBMC, 24 h stimulation, ELISA, read-out: pIC50, inhibition of IL-2/anti-CD3 stimulated IFNγ (converted)
Excerpt: Data are expressed as pIC50 (negative decadic logarithm IC50) values.

T1 sequence (O60674 whole entry): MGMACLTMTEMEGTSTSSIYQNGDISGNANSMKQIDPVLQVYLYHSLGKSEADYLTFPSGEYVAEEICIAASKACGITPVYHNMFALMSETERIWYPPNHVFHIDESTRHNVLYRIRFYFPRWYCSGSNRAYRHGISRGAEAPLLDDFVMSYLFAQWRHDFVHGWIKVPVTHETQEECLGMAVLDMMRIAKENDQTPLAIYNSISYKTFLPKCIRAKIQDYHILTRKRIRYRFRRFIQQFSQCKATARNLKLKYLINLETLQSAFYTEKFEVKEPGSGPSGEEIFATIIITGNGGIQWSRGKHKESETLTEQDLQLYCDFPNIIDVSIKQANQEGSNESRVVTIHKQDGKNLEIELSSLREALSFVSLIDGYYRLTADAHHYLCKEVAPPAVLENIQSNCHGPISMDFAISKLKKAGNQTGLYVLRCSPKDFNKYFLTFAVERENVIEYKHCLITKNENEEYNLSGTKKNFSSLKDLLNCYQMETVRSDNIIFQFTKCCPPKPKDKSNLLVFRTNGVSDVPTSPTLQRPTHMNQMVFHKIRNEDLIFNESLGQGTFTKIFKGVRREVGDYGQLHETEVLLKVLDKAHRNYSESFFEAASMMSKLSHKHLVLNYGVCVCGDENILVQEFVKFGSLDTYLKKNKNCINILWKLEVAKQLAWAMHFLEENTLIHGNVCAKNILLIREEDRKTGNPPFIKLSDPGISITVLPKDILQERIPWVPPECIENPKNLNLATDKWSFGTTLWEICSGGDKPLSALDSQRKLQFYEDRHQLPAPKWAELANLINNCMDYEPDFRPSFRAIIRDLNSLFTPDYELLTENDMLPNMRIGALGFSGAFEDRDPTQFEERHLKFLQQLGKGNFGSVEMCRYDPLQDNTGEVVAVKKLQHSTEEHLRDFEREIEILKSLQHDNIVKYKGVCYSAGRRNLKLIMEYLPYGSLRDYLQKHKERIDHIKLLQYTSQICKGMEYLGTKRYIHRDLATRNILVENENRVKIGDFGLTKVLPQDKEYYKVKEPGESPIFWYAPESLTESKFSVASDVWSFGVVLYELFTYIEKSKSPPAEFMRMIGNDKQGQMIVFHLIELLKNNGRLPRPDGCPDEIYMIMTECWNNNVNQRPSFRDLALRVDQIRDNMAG

Compound: CCc1cc(O)c(F)cc1-c1ccc2c(-c3nc4c([nH]3)CCN(C3CCN(C)CC3)C4)n[nH]c2c1 [Compound 1, 5-ethyl-2-fluoro-4-(3-(5-(1-methylpiperidin-4-yl)-4,5,6,7-tetrahydro-1H-imidazo[4,5-c]pyridin-2-yl)-1H-indazol-6-yl)phenol]
- Ki (JAK2): 0.0158 nM
- Ki (JAK3): 0.2 nM
- Ki (JAK1): 0.0631 nM
- IC50 [1]: ~50.1 nM
